The record followed here is PubChem BioAssay (NCI).

Several values for one entry are separate records, joined by “and”; a condition that tells them apart may be missing. Identical values can stand only once.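 Cells were grown in 96-well plates and exposed to each compound for 48 hours at five concentrations; endpoints were interpolated linearly between bracketing concentrations, or set to the highest concentration if not reached. TGI: total growth inhibition.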

Among the test systems are HL-60(TB) leukemia; PC-3 prostate; A498 renal; SN12C renal; UO-31 renal; 786-0 renal; SNB-19 CNS; SF-539 CNS; BT-549 breast; CCRF-CEM leukemia; SF-295 CNS.
Holding throughout (experiment): NCI tumour cell line growth inhibition, 48 h

For `O=C(c1ccc(Cl)cc1)N(C(=S)OCCOc1ccccc1)c1ccccc1`, the TGI turned out to be 38.6 µM in the assay with HL-60(TB) leukemia; 56.7 µM with PC-3 prostate; 48 µM in the assay with A498 renal; 39.3 µM in the assay on SN12C renal; 3.12 µM in the assay on UO-31 renal; 40.1 µM in the assay with 786-0 renal. In addition, the TGI was determined as 42.8 µM with SNB-19 CNS; 34 µM with SF-539 CNS; 52.3 µM with BT-549 breast; 42.7 µM in the assay on CCRF-CEM leukemia; 94 µM in the assay with SF-295 CNS.
Turning to `Cc1ccc(N/C(SCc2ccccc2)=C(\C(Cl)=C(Cl)Cl)[N+](=O)[O-])c(C)c1`, the TGI in the assay with PC-3 prostate was more than 100 µM; in the assay with A498 renal, 74.1 µM; in the assay on SN12C renal it was 43.8 µM; in the assay with UO-31 renal, 63.5 µM; with 786-0 renal it was 54.3 µM; with SNB-19 CNS, more than 100 µM. The TGI in the assay with SF-539 CNS is 46.1 µM; in the assay on BT-549 breast, 36.5 µM; in the assay on CCRF-CEM leukemia it was more than 100 µM; with SF-295 CNS it was 94.9 µM.
`CC1=C(C(=O)N[C@@H](CC(C)C)C(=O)O)N2C(=O)[C@@H](NC(=O)C(N)c3ccccc3)[C@H]2SC1` (some centres undefined): the TGI in the assay with HL-60(TB) leukemia, with PC-3 prostate, with A498 renal, with SN12C renal, with 786-0 renal and in the assay on SNB-19 CNS was more than 100 µM each time. For the same compound, the TGI with SF-539 CNS, in the assay with BT-549 breast, with CCRF-CEM leukemia and in the assay on SF-295 CNS was more than 100 µM in each case.
For `COC(=O)CC1c2ccccc2N2C(=O)Cc3c([nH]c4ccccc34)C12` (centres undefined), the TGI in the assay with PC-3 prostate, in the assay with A498 renal, with SN12C renal, in the assay on UO-31 renal, in the assay on 786-0 renal and in the assay with SNB-19 CNS was more than 100 µM throughout. The TGI in the assay with BT-549 breast, in the assay with CCRF-CEM leukemia and in the assay with SF-295 CNS was more than 100 µM each time.
Regarding `COc1cc2c(c(OC)c1OC)-c1ccc(SC)cc1C(O)CC2` (centres undefined), the TGI was less than 0.01 µM with HL-60(TB) leukemia; > 100 µM and 63.9 µg/mL with PC-3 prostate; > 100 µM and 0.0742 µg/mL with A498 renal; 23.6 µM in the assay on SN12C renal; more than 100 µM with 786-0 renal; more than 100 µM with SNB-19 CNS. The TGI is 41 mg/L in the assay with BT-549 breast, more than 100 µM with CCRF-CEM leukemia and 83.7 µM with SF-295 CNS.
Consider `N#Cc1c(-c2ccccc2)c(CN2CCCCC2)c(=O)n2c1[nH]c1ccccc12`, for which the TGI in the assay on PC-3 prostate is more than 100 µM; with A498 renal it was more than 100 µM; in the assay on SN12C renal it was more than 100 µM; with UO-31 renal it was more than 100 µM; in the assay with 786-0 renal it was 95.6 µM; in the assay on SNB-19 CNS it was more than 100 µM. The TGI in the assay on SF-539 CNS, with BT-549 breast, with CCRF-CEM leukemia and with SF-295 CNS was more than 100 µM in each case.
Regarding `Cc1cccc(N/C(Sc2ccccc2)=C(/C(Cl)=C(Cl)Cl)[N+](=O)[O-])c1`, the TGI in the assay on PC-3 prostate is more than 100 µM; with A498 renal it was 40.6 µM; with SN12C renal it was 35.1 µM; in the assay on UO-31 renal, 29.9 µM; in the assay with 786-0 renal it was 32.9 µM; in the assay on SNB-19 CNS it was more than 100 µM. Also, the TGI in the assay with SF-539 CNS is 31.3 µM; in the assay with BT-549 breast, 41.8 µM; in the assay with CCRF-CEM leukemia it was more than 100 µM; with SF-295 CNS it was 36.2 µM.
As for `Cn1cc(-c2csc(-c3cn(C)c4ccccc34)n2)c2ccccc21`, the TGI with HL-60(TB) leukemia was more than 100 µM; in the assay on PC-3 prostate, 89.8 µM; in the assay on A498 renal, 48.1 µM; in the assay with SN12C renal it was more than 100 µM; with UO-31 renal, more than 100 µM; in the assay on 786-0 renal, more than 100 µM. Further, the TGI with SNB-19 CNS, in the assay on BT-549 breast, in the assay with CCRF-CEM leukemia and in the assay with SF-295 CNS was more than 100 µM in each case.
On to `CC(=O)N(C(C)=O)c1cc2c3c(c1)CCCN3CCC2`, for which the TGI with HL-60(TB) leukemia, in the assay on PC-3 prostate, in the assay with A498 renal, with SN12C renal, with 786-0 renal and in the assay with SNB-19 CNS was more than 10 µM each time. Besides, the TGI in the assay with SF-539 CNS, with BT-549 breast, with CCRF-CEM leukemia and in the assay on SF-295 CNS was more than 10 µM in each case.
Regarding `Cc1cnc2sn(-c3ccc(Br)cc3)c(=O)c2c1`, the TGI is 49.7 µM with HL-60(TB) leukemia; more than 100 µM in the assay on PC-3 prostate; more than 100 µM with SN12C renal; more than 100 µM in the assay on UO-31 renal; more than 100 µM in the assay on 786-0 renal; more than 100 µM in the assay on SNB-19 CNS. In addition, the TGI with SF-539 CNS is more than 100 µM; in the assay with BT-549 breast it was more than 100 µM; in the assay on CCRF-CEM leukemia, 69.7 µM; in the assay on SF-295 CNS, 97.8 µM.
With `O=C(N/N=C(/COc1ccccc1)N=Cc1cccnc1)c1ccncc1`, the TGI in the assay on HL-60(TB) leukemia, in the assay on PC-3 prostate, in the assay with A498 renal, in the assay on SN12C renal, with 786-0 renal and in the assay on SNB-19 CNS was more than 100 µM in each case. In addition, the TGI with SF-539 CNS, in the assay with BT-549 breast, in the assay on CCRF-CEM leukemia and in the assay with SF-295 CNS was more than 100 µM each time.
For `CCOC(=O)c1nnc2c(C#N)c(-c3ccccc3)c(C)n2c1N`, the TGI in the assay with PC-3 prostate was more than 100 µM; with A498 renal, 79.4 µM; in the assay with SN12C renal it was more than 100 µM; in the assay on UO-31 renal it was more than 100 µM; in the assay on 786-0 renal it was more than 100 µM; with SNB-19 CNS it was 89.2 µM. In addition, the TGI in the assay on SF-539 CNS, in the assay on BT-549 breast, in the assay with CCRF-CEM leukemia and in the assay with SF-295 CNS was more than 100 µM throughout.
Consider `CC1=C(C)SC(=C2Sc3nc(O)[nH]c(=O)c3S2)S1`, for which the TGI in the assay on PC-3 prostate, with A498 renal, in the assay on SN12C renal, in the assay with UO-31 renal, in the assay on 786-0 renal and in the assay on SNB-19 CNS was more than 100 µM in each case. The TGI in the assay with SF-539 CNS, in the assay on BT-549 breast, in the assay on CCRF-CEM leukemia and in the assay on SF-295 CNS was more than 100 µM in each case.
